The nature of this data set: Metabolism stability assay, human liver microsomes. Format: in vitro ADME. The following applies: for metabolic stability (in words): from Table 7; for half-life at 1 µM: pH 7.4. On the procedure: Assay 4: Metabolism Stability Assay 1. […] Buffer A: 1 L solution of 100 mM potassium dihydrogen phosphate containing 1 mM EDTA (Sigma, V900157-100G) was prepared. Buffer B: 1 L solution of 100 mM dipotassium hydrogen phosphate containing 1 mM EDTA was prepared. Buffer C: 700 mL of buffer B was taken out and titrated with buffer A to pH 7.4. 2. […] 2.2 20 μl (20 mg/mL) of liver microsomes (Corning Lot. NO. 4133007) stock solution was added to 513.4 μl of buffer C on wet ice. 0.75 mg/mL liver microsomal solution was obtained. 2.3 1.5 μl of each of the above-mentioned compound to be tested and ketanserin solution was added to 498.5 μl of liver microsomal solution (0.7 5 mg/mL) respectively on wet ice. 1.5 μM mixed solution of compound to be tested and 1.5 μM mixed solution of ketanserin were obtained. 2.4 At the time points 0, 5, 15, 30, 45, and 60 min, 30 μl of the mixed solution of compound to be tested and 30 μl of the mixed solution of ketanserin were dispensed into the reaction plate on wet ice, respectively. 2.5 5 mg reduced coenzyme II (Roche, 10621706001) was weighed and dissolved in 1 mL of buffer C. 6 mM reduced coenzyme II solution was obtained. The reduced coenzyme II solution was dispensed into the reaction plate. 2.6 Imipramine was dissolved to give a 10 mM solution. 10 μl of imipramine solution was added to 100 mL of blank acetonitrile to generate the internal reference. 2.7 At 0 min, 135 μL of iced acetonitrile (Merck (Lot. 1778229518)) containing the internal reference was added to each well and then 15 μL of buffer C was added. 2.8 The reaction plate was placed into a 37° C. water bath incubator for 5 min. In the reaction plate, 15 μL of reduced coenzyme II solution was added to each well to initiate the reaction, and the timing was started. At the time points of 5, 15, 30, 45, and 60 min, 135 μL of iced acetonitrile containing the internal reference was added to each well to terminate the reaction. 2.9 The reaction plate was sealed with an aluminum film, placed on a vibration mixer and shaken at 500 rpm for 5 min. The plate was then centrifuged in a centrifuge at 3750 rp for 15 min. 2.10 The sample was diluted with pure water in accordance with the ratio of 1:1 and detected by LC/MS. Half-life: 0.693/K (the slope by plotting based on the incubation time and logarithm of the concentration value) Clearance ratio: (0.693/half-life)*(1/protein concentration (0.5 mg/mL))*(proportional factor) Wherein, the K value and the proportional factor were calculated by those skilled in the art according to the methods described in the prior art and contained in the instructions of the liver microsome product.
(In general: Liver microsomes are a subcellular fraction often used to study metabolism.)

Structures are written as SMILES.

The half-life is the time needed for the level to fall by half in the phase considered. Low readings indicate rapid decline, high ones slow decline. `CS(=O)(=O)NC(=O)c1cc(Cl)c(CN2CCN(c3ccc(C4CC4)c(Cl)c3)CC2)cc1F` [Compound C12, reference compound]: the “Clearance” value was found to be 78.28 mL/min/kg, the “metabolic stability (in words)” value was “significantly reduced” and the half-life at 1 µM amounted to 22.2 min.
On the same counts, the results for `Cc1cc(N2CCN(Cc3cc(F)c(C(=O)NS(C)(=O)=O)cc3Cl)CC2)ccc1Cl` [Compound C13, reference compound] are 138.91 mL/min/kg, “significantly reduced” and 12.5 min.
`O=C(NS(=O)(=O)C1CC1)c1cc(Cl)c(OC[C@H]2CCCN2c2ccc(C(F)(F)F)nc2)cc1F` [Compound Z-119, (R)-5-chloro-N-(cyclopropylsulfonyl)-2-fluoro-4-((1-(6-(trifluoromethyl)pyridin-3-yl)pyrrolidin-2-yl)methoxy) benzamide]: the “Clearance” value worked out at 22.57 mL/min/kg and the half-life at 1 µM is 77 min.

The values above are taken from patent US10815197B2, “N-sulfonyl benzamides as voltage-gated sodium channel inhibitors” (SHANGHAI HAIYAN PHARMACEUTICAL TECHNOLOGY CO., LTD., priority 2016, dated 2020).
